How the values were obtained:
[1] = system: HCV genotype 1b (Con1) replicon in HUH-7 cells; experiment: HCV replicon luciferase reporter assay, genotype 1b; assay type: cell-based; conditions: Hepatitis C virus, Huh-7, 72 h, HCV genotype 1b replicon luciferase, 3 days incubation, read-out: LE_1b (EC50, range)
Method in brief: (§1)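 Replicon inhibition for both genotypes was measured as Renilla luciferase signal (EnduRen, 7.5 μM final, 2 h) after 3-day, 37° C exposure of replicon-bearing HUH-7 cells in 4% FCS DMEM, 0.5% DMSO. The 1b construct carries S1179I; the 1a H77 construct carries P1496L and S2204I. Twenty-point, 3-fold dilutions were fitted four-parametrically for EC50, and CC50 was taken from multiplexed Cell Titer-Blue.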

[2] = system: HCV genotype 1a (H77 strain) replicon in HUH-7 cells; experiment: HCV replicon luciferase reporter assay, genotype 1a; assay type: cell-based; conditions: Hepatitis C virus, Huh-7, 72 h, HCV genotype 1a replicon luciferase, 3 days incubation, read-out: LE_1a (EC50, range)
Method in brief: as §1

SMILES | EC50 [1] [nM] | EC50 [2] [nM]
CCOc1ccc2c(O[C@@H]3C[C@H]4C(=O)N[C@]5(C(=O)NS(=O)(=O)C6(C)CC6)C[C@H]5/C=C\CC[C@@H](C)C[C@@H](C)[C@H](NC(=O)NC(C)(C)C(F)(F)F)C(=O)N4C3)nccc2c1 [Compound 5144, (2R,6S,7R,9R,13aS,14aR,16aS,Z)-2-((6-ethoxyisoquinolin-1-yl)oxy)-7,9-dimethyl-N-((1-methylcyclopropyl)sulfonyl)-5,16-dioxo-6-(3-(1,1,1-trifluoro-2-methylpropan-2-yl)ureido)-1,2,3,5,6,7,8,9,10,11,13a,14,14a,15,16,16a-hexadecahydrocyclopropa[e]pyrrolo[1,2-a][1,4]diazacyclopentadecine-14a-carboxamide] | < 5.46 | 4.82 to 103
CC(C)Oc1ccc2c(O[C@@H]3C[C@H]4C(=O)N[C@]5(C(=O)NS(=O)(=O)C6CC6)C[C@H]5/C=C\CC[C@H](C)C[C@@H](C)[C@H](NC(=O)OC(C)(C)C)C(=O)N4C3)nccc2c1 [Compound 5145, tert-butyl ((2R,6S,7R,9S,13aS,14aR,16aS,Z)-14a-((cyclopropylsulfonyl)carbamoyl)-2-((6-isopropoxyisoquinolin-1-yl)oxy)-7,9-dimethyl-5,16-dioxo-1,2,3,5,6,7,8,9,10,11,13a,14,14a,15,16,16a-hexadecahydrocyclopropa[e]pyrrolo[1,2-a][1,4]diazacyclopentadecin-6-yl)carbamate] | < 5.46 | 4.82 to 103
CC(C)Oc1ccc2c(O[C@@H]3C[C@H]4C(=O)N[C@]5(C(=O)NS(=O)(=O)C6CC6)C[C@H]5/C=C\CC[C@@H](C)C[C@@H](C)[C@H](NC(=O)OC(C)(C)C)C(=O)N4C3)nccc2c1 [Compound 5146, tert-butyl ((2R,6S,7R,9R,13aS,14aR,16aS,Z)-14a-((cyclopropylsulfonyl)carbamoyl)-2-((6-isopropoxyisoquinolin-1-yl)oxy)-7,9-dimethyl-5,16-dioxo-1,2,3,5,6,7,8,9,10,11,13a,14,14a,15,16,16a-hexadecahydrocyclopropa[e]pyrrolo[1,2-a][1,4]diazacyclopentadecin-6-yl)carbamate] | < 5.46 | < 5.46
CC(C)Oc1ccc2c(O[C@@H]3C[C@H]4C(=O)N[C@]5(C(=O)NS(=O)(=O)C6CC6)C[C@H]5/C=C\CC[C@H](C)C[C@@H](C)[C@H](NC(=O)OC(C)(C)C(F)(F)F)C(=O)N4C3)nccc2c1 [Compound 5147, 1,1,1-trifluoro-2-methylpropan-2-yl((2R,6S,7R,9S,13aS,14aR,16aS,Z)-14a-((cyclopropylsulfonyl)carbamoyl)-2-((6-isopropoxyisoquinolin-1-yl)oxy)-7,9-dimethyl-5,16-dioxo-1,2,3,5,6,7,8,9,10,11,13a,14,14a,15,16,16a-hexadecahydrocyclopropa[e]pyrrolo[1,2-a][1,4]diazacyclopentadecin-6-yl)carbamate] | 4.82 to 103 | 4.82 to 103
CC(C)Oc1ccc2c(O[C@@H]3C[C@H]4C(=O)N[C@]5(C(=O)NS(=O)(=O)C6CC6)C[C@H]5/C=C\CC[C@@H](C)C[C@@H](C)[C@H](NC(=O)OC(C)(C)C(F)(F)F)C(=O)N4C3)nccc2c1 [Compound 5148, 1,1,1-trifluoro-2-methylpropan-2-yl((2R,6S,7R,9R,13aS,14aR,16aS,Z)-14a-((cyclopropylsulfonyl)carbamoyl)-2-((6-isopropoxyisoquinolin-1-yl)oxy)-7,9-dimethyl-5,16-dioxo-1,2,3,5,6,7,8,9,10,11,13a,14,14a,15,16,16a-hexadecahydrocyclopropa[e]pyrrolo[1,2-a][1,4]diazacyclopentadecin-6-yl)carbamate] | < 5.46 | < 5.46
CC(C)Oc1ccc2c(O[C@@H]3C[C@H]4C(=O)N[C@]5(C(=O)NS(=O)(=O)C6CC6)C[C@H]5/C=C\CC[C@H](C)C[C@@H](C)[C@H](NC(=O)O[C@H](C)C(F)(F)F)C(=O)N4C3)nccc2c1 [Compound 5149, (R)-1,1,1-trifluoropropan-2-yl((2R,6S,7R,9S,13aS,14aR,16aS,Z)-14a-((cyclopropylsulfonyl)carbamoyl)-2-((6-isopropoxyisoquinolin-1-yl)oxy)-7,9-dimethyl-5,16-dioxo-1,2,3,5,6,7,8,9,10,11,13a,14,14a,15,16,16a-hexadecahydrocyclopropa[e]pyrrolo[1,2-a][1,4]diazacyclopentadecin-6-yl)carbamate] | < 5.46 | 4.82 to 103
CC(C)Oc1ccc2c(O[C@@H]3C[C@H]4C(=O)N[C@]5(C(=O)NS(=O)(=O)C6CC6)C[C@H]5/C=C\CC[C@@H](C)C[C@@H](C)[C@H](NC(=O)O[C@H](C)C(F)(F)F)C(=O)N4C3)nccc2c1 [Compound 5150, (R)-1,1,1-trifluoropropan-2-yl((2R,6S,7R,9R,13aS,14aR,16aS,Z)-14a-((cyclopropylsulfonyl)carbamoyl)-2-((6-isopropoxyisoquinolin-1-yl)oxy)-7,9-dimethyl-5,16-dioxo-1,2,3,5,6,7,8,9,10,11,13a,14,14a,15,16,16a-hexadecahydrocyclopropa[e]pyrrolo[1,2-a][1,4]diazacyclopentadecin-6-yl)carbamate] | < 5.46 | < 5.46
[2H]C([2H])([2H])C(C)(OC(=O)N[C@@H]1C(=O)N2C[C@H](Oc3nccc4cc(OC(C)C)ccc34)C[C@H]2C(=O)N[C@]2(C(=O)NS(=O)(=O)C3CC3)C[C@H]2/C=C\CC[C@H](C)C[C@H]1C)C([2H])([2H])[2H] [Compound 5152, 1,1,1,3,3,3-hexadeutero-2-methylpropan-2-yl((2R,6S,7R,9S,13aS,14aR,16aS,Z)-14a-((cyclopropylsulfonyl)carbamoyl)-2-((6-isopropoxyisoquinolin-1-yl)oxy)-7,9-dimethyl-5,16-dioxo-1,2,3,5,6,7,8,9,10,11,13a,14,14a,15,16,16a-hexadecahydrocyclopropa[e]pyrrolo[1,2-a][1,4]diazacyclopentadecin-6-yl)carbamate] | 4.82 to 103 | 4.82 to 103
[2H]C([2H])([2H])C(C)(OC(=O)N[C@@H]1C(=O)N2C[C@H](Oc3nccc4cc(OC(C)C)ccc34)C[C@H]2C(=O)N[C@]2(C(=O)NS(=O)(=O)C3CC3)C[C@H]2/C=C\CC[C@@H](C)C[C@H]1C)C([2H])([2H])[2H] [Compound 5153, 1,1,1,3,3,3-hexadeutero-2-methylpropan-2-yl((2R,6S,7R,9R,13aS,14aR,16aS,Z)-14a-((cyclopropylsulfonyl)carbamoyl)-2-((6-isopropoxyisoquinolin-1-yl)oxy)-7,9-dimethyl-5,16-dioxo-1,2,3,5,6,7,8,9,10,11,13a,14,14a,15,16,16a-hexadecahydrocyclopropa[e]pyrrolo[1,2-a][1,4]diazacyclopentadecin-6-yl)carbamate] | < 5.46 | < 5.46
[2H]C([2H])([2H])C(OC(=O)N[C@@H]1C(=O)N2C[C@H](Oc3nccc4cc(OC(C)C)ccc34)C[C@H]2C(=O)N[C@]2(C(=O)NS(=O)(=O)C3CC3)C[C@H]2/C=C\CC[C@H](C)C[C@H]1C)(C([2H])([2H])[2H])C([2H])([2H])[2H] [Compound 5154, 1,1,1,3,3,3-hexadeutero-2-(trideuteromethyl)propan-2-yl((2R,6S,7R,9S,13aS,14aR,16aS,Z)-14a-((cyclopropylsulfonyl)carbamoyl)-2-((6-isopropoxyisoquinolin-1-yl)oxy)-7,9-dimethyl-5,16-dioxo-1,2,3,5,6,7,8,9,10,11,13a,14,14a,15,16,16a-hexadecahydrocyclopropa[e]pyrrolo[1,2-a][1,4]diazacyclopentadecin-6-yl)carbamate] | 4.82 to 103 | 4.82 to 103

Source: patent US9499550B2 (BRISTOL-MYERS SQUIBB COMPANY, priority 2012, dated 2016)
